Laboratory results published in PubChem BioAssay (NCI).
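96-well plates; 48 h exposure; 5 concentrations. Endpoints by linear interpolation between flanking doses. Not reached: highest tested concentration assigned. TGI denotes the concentration required for complete inhibition of growth.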

Columns and labels:
Test in all cases: NCI anticancer screen, dose series, 48 h
786-0 renal = system: 786-0 renal
A498 renal = system: A498 renal
ACHN renal = system: ACHN renal
CAKI-1 renal = system: CAKI-1 renal
CCRF-CEM leukemia = system: CCRF-CEM leukemia
COLO 205 colon = system: COLO 205 colon
DLD-1 colon = system: DLD-1 colon
DMS 114 small cell lung = system: DMS 114 small cell lung
DMS 273 small cell lung = system: DMS 273 small cell lung
DU-145 prostate = system: DU-145 prostate
EKVX NSCLC = system: EKVX NSCLC
HCC-2998 colon = system: HCC-2998 colon
HCT-116 colon = system: HCT-116 colon
HCT-15 colon = system: HCT-15 colon
HL-60(TB) leukemia = system: HL-60(TB) leukemia
HOP-62 NSCLC = system: HOP-62 NSCLC
HOP-92 NSCLC = system: HOP-92 NSCLC
HS 578T breast = system: HS 578T breast
HT29 colon = system: HT29 colon
IGROV1 ovarian = system: IGROV1 ovarian
KM12 colon = system: KM12 colon
KM20L2 colon = system: KM20L2 colon
LOX IMVI melanoma = system: LOX IMVI melanoma
LXFL 529 NSCLC = system: LXFL 529 NSCLC
M14 melanoma = system: M14 melanoma
MALME-3M melanoma = system: MALME-3M melanoma
MCF7 breast = system: MCF7 breast
MDA-MB-231 breast = system: MDA-MB-231 breast
MDA-MB-435 = system: MDA-MB-435
MDA-N = system: MDA-N
MOLT-4 leukemia = system: MOLT-4 leukemia
NCI-H226 lung = system: NCI-H226 lung
NCI-H23 lung = system: NCI-H23 lung
NCI-H460 lung = system: NCI-H460 lung
NCI-H522 lung = system: NCI-H522 lung
NCI/ADR-RES ovarian = system: NCI/ADR-RES ovarian
OVCAR-3 ovarian = system: OVCAR-3 ovarian
OVCAR-4 ovarian = system: OVCAR-4 ovarian
OVCAR-5 ovarian = system: OVCAR-5 ovarian
OVCAR-8 ovarian = system: OVCAR-8 ovarian
PC-3 prostate = system: PC-3 prostate
RPMI-8226 leukemia = system: RPMI-8226 leukemia
RXF 393 renal = system: RXF 393 renal
RXF-631 renal = system: RXF-631 renal
SF-268 CNS = system: SF-268 CNS
SF-295 CNS = system: SF-295 CNS
SF-539 CNS = system: SF-539 CNS
SK-MEL-2 melanoma = system: SK-MEL-2 melanoma
SK-MEL-28 melanoma = system: SK-MEL-28 melanoma
SK-MEL-5 melanoma = system: SK-MEL-5 melanoma
SK-OV-3 ovarian = system: SK-OV-3 ovarian
SN12C renal = system: SN12C renal
SNB-19 CNS = system: SNB-19 CNS
SNB-75 CNS = system: SNB-75 CNS
SNB-78 CNS = system: SNB-78 CNS
SR leukemia = system: SR leukemia
SW-620 colon = system: SW-620 colon
T-47D breast = system: T-47D breast
TK-10 renal = system: TK-10 renal
U251 CNS = system: U251 CNS
UACC-257 melanoma = system: UACC-257 melanoma
UACC-62 melanoma = system: UACC-62 melanoma
UO-31 renal = system: UO-31 renal
XF 498 CNS = system: XF 498 CNS

Structure (SMILES): COc1ncnc2c(NC3OC(CO)C(O)C3O)ncnc12 (centres undefined)
- TGI (786-0 renal): 14 µM
- TGI (A498 renal): 1.58 µM
- TGI (ACHN renal): > 53.7 µM
- TGI (CAKI-1 renal): 6.3 µM
- TGI (CCRF-CEM leukemia): 1.57 µM
- TGI (COLO 205 colon): 7.54 µM
- TGI (DLD-1 colon): 33.7 µM
- TGI (DMS 114 small cell lung): 1.09 µM
- TGI (DMS 273 small cell lung): 5.74 µM
- TGI (DU-145 prostate): 10 µM
- TGI (EKVX NSCLC): > 49 µM
- TGI (HCC-2998 colon): > 35 µM
- TGI (HCT-116 colon): 0.604 µM
- TGI (HCT-15 colon): > 100 µM
- TGI (HL-60(TB) leukemia): 0.418 µM
- TGI (HOP-62 NSCLC): 18 µM
- TGI (HOP-92 NSCLC): 0.527 µM
- TGI (HS 578T breast): 4.86 µM
- TGI (HT29 colon): > 32 µM
- TGI (IGROV1 ovarian): 3.82 µM
- TGI (KM12 colon): > 65.1 µM
- TGI (KM20L2 colon): > 100 µM
- TGI (LOX IMVI melanoma): 0.619 µM
- TGI (LXFL 529 NSCLC): 83.4 µM
- TGI (M14 melanoma): 21.9 µM
- TGI (MALME-3M melanoma): > 100 µM
- TGI (MCF7 breast): 0.443 µM
- TGI (MDA-MB-231 breast): 1.54 µM
- TGI (MDA-MB-435): > 100 µM
- TGI (MDA-N): 22.8 µM
- TGI (MOLT-4 leukemia): 1.94 µM
- TGI (NCI-H226 lung): 3.82 µM
- TGI (NCI-H23 lung): 13.5 µM
- TGI (NCI-H460 lung): > 83.5 µM
- TGI (NCI-H522 lung): > 100 µM
- TGI (NCI/ADR-RES ovarian): 6.2 µM
- TGI (OVCAR-3 ovarian): 11.1 µM
- TGI (OVCAR-4 ovarian): 7.08 µM
- TGI (OVCAR-5 ovarian): > 35.6 µM
- TGI (OVCAR-8 ovarian): 5.29 µM
- TGI (PC-3 prostate): 12.6 µM
- TGI (RPMI-8226 leukemia): 3.08 µM
- TGI (RXF 393 renal): 12.7 µM
- TGI (RXF-631 renal): 15.4 µM
- TGI (SF-268 CNS): > 100 µM
- TGI (SF-295 CNS): 22.6 µM
- TGI (SF-539 CNS): 1.33 µM
- TGI (SK-MEL-2 melanoma): > 100 µM
- TGI (SK-MEL-28 melanoma): > 100 µM
- TGI (SK-MEL-5 melanoma): > 39.8 µM
- TGI (SK-OV-3 ovarian): > 27.1 µM
- TGI (SN12C renal): 10.6 µM
- TGI (SNB-19 CNS): 74 µM
- TGI (SNB-75 CNS): 6.38 µM
- TGI (SNB-78 CNS): 71.9 µM
- TGI (SR leukemia): 0.276 µM
- TGI (SW-620 colon): 13.2 µM
- TGI (T-47D breast): 7.22 µM
- TGI (TK-10 renal): 5.97 µM
- TGI (U251 CNS): > 100 µM
- TGI (UACC-257 melanoma): > 100 µM
- TGI (UACC-62 melanoma): 6.66 µM
- TGI (UO-31 renal): > 21.9 µM
- TGI (XF 498 CNS): 7.84 µM
